Data on one compound can be found in article PMC12635197, “Discovery of first-in-class inhibitors of the TRF1:TIN2 protein:protein interaction by fragment screening” (Scientific Reports, 2025).

Data set [1] in a line: Fragment solubility assay (quantitative 1H NMR). Format: physicochemical. The note with it: NMR buffer, overnight incubation, 1H NMR quantified against 1 mM caffeine standard. How it is done: Aqueous solubility test samples were prepared by adding 3.6 µL compound (50 mM stock in 100% DMSO-d6) to 176.4 µL NMR buffer in a microcentrifuge tube. The samples were incubated overnight and transferred to a 3-mm NMR tube (Bruker, Part No. Z112272). ^1H NMR spectra were recorded, with the DMSO and water signals dampened. 1 mM caffeine (Sigma, C1778 in PBS (pH 7.4) with 1% DMSO-d6) was used as a standard to quantify the ligand signals and determine the concentration of samples.
NMR data were collected on a Bruker Avance Neo 600-MHz spectrometer equipped with a 5 mm TCI-CryoProbe. The ^1H spectrum was referenced to the internal deuterated solvent. The operating frequency for ^1H was 600 MHz. All NMR data were acquired at the temperature of 298 K. All data were acquired and processed using Bruker Topspin 4.0. The quantitative ^1H-NMR spectrum was acquired using a Bruker standard 1D lc1pngppsf2 pulse sequence with 32 scans. The sweep width was 6.2 ppm with O1P set to 8.8 ppm, and the FID contained 16k time-domain data points. Relaxation delay was set to 20 s. Water signal was suppressed.

A further data set concerns the target T1, TRF1TRFH (Homo sapiens, UniProt P54274).
T1 construct: encoding residues 47–268, UniProt identifier P54274-1; His6-MBP (TEV-cleavable) (N, cleaved yes); made in house; host or cells: E. coli BL21-CodonPlus(DE3)-RIL
T1 sequence (P54274 47-268): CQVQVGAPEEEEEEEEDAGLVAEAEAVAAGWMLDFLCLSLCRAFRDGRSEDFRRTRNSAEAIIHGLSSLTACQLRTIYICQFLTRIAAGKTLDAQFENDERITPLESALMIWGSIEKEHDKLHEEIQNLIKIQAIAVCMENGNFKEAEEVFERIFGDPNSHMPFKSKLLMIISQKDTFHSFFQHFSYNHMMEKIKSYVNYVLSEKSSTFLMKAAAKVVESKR
Kind of data set: LO-NMR R2KD assay. The data set is classed as binding. To be noted: global KD shared across 1H NMR peaks, single experiment, 95% CI in parentheses; 2 µM TRF1TRFH. How it is done:
Recent work by Liu and colleagues introduced a novel LO-NMR method that can be used to quantitatively determine the dissociation constant (KD) of a ligand for a protein from measured R2 values of ligand nuclei at a range of ligand concentrations.
The R2KD assay was carried out as described by Liu et al.[40]. A Bruker SamplePro liquid handler was used to prepare 10 samples: 8 samples containing an increasing ligand concentration from 50 to 500 µM whilst maintaining a constant TRF1TRFH concentration (2 µM final); and two samples containing ligand only at 200 µM and 400 µM. All ten samples were prepared from stock solutions of ligand, DMSO, protein and buffer alone using the Bruker SamplePro liquid handler prior to transfer to 3-mm NMR tubes.
NMR data were collected at 298 K on a Bruker Avance Neo 600-MHz spectrometer using the Bruker Topspin 4.0 software. T2 relaxation experiments were performed using the standard Bruker CPMG pulse program with Excitation Sculpting incorporated to suppress water signal. The spin-echo period (delay-180°-delay) was set to 1 ms (d20 = 500 µs), and the relaxation delay (d1) was set to 10 s. The sudo-2D experiment contained nine slices with the spin echo period repeated at the following times: 4, 20, 100, 200, 300, 500, 700, 1000, and 2000 ms. T2 relaxation data were processed using the MestReNova 14.1 data analysis module to obtain integrals of individual[1]H-NMR signals, which were used to calculate R2 with the equation I = I0e^(−tR2). GraphPad Prism 9.0.0 was used to fit R2 values of individual compound peaks to obtain an overall (shared) KD value from all peaks of the compound.

Data set [2] addresses T2, TRF1TRFH:TIN2-FAM interaction (Homo sapiens, UniProt P54274).
T2 construct: encoding residues 47–268, UniProt identifier P54274-1; His6-MBP (TEV-cleavable) (N, cleaved yes); made in house; host or cells: E. coli BL21-CodonPlus(DE3)-RIL (TRF1TRFH); probe peptide from Pepceuticals
T2 sequence (P54274 47-268): T1 sequence (P54274 47-268)
Kind of data set: Fluorescence polarisation (FP) competition assay, TIN2-FAM displacement. The data set is classed as binding. To be noted: 0.6 µM TRF1TRFH, 25 nM TIN2-FAM; mean of three independent experiments, 95% CI in parentheses. How it is done: To complement the biophysical R2KD assay, we developed a fluorescence polarisation (FP) competition assay based on a TIN2TBM peptide labelled with an N-terminal 5(6)-carboxyfluorescein (6-FAM) fluorophore. […] The NMR hit analogues were then titrated against constant concentrations of TRF1TRFH and TIN2-FAM (0.6 µM and 25 nM, respectively).
A TIN2TBM peptide was obtained from Pepceuticals with a 5(6)-carboxyfluorescein (FAM) fluorophore added to the N-terminus for fluorescence studies. To determine the assay window for the FP assay, the TIN2-FAM probe was prepared as a 16-µM stock in aqueous buffer and titrated from 0 to 400 nM against either a constant concentration of TRF1TRFH (0.5 µM in FP buffer) or FP buffer alone (25 mM HEPES-NaOH pH 7.5, 100 mM NaCl, 1 mM TCEP, 0.05% w/v CHAPS). Samples were prepared to a final volume of 10 µL in Packard Proxiplate 384 F plus plates; plates were incubated in darkness at room temperature for 1 h prior to measuring fluorescence intensities and calculating FP values, using a BMG Labtech PHERAstar FSX plate reader with an FP 485 520 520 optic module. A settling time of 0.3 s was used, and the number of flashes was set to 200 for FP measurements. For each plate, a target mP of 35 was set and the gain adjusted on the TIN2-FAM probe control well minus protein.
For the FP competition assay, the unlabelled compounds (from 50-mM DMSO stocks) were first dispensed in duplicate into wells of a Proxiplate 384 F Plus plate using an Echo 550 acoustic liquid handler to give a 13-point concentration range from 0.2 to 500 µM. Wells were then backfilled to 250 nL with DMSO before the addition of 5 µL of 2x TRF1TRFH (0.6 µM final concentration) and 4.75 µL 2x TIN2-FAM (25 nM final concentration). Plates were spun and sealed prior to incubation for 1 h in darkness. FP measurements were then carried out as described above.
For orientation: In fluorescence polarisation assays a small probe gives low polarisation when free and higher when bound to something large.

Consider `COc1cc(COc2ccc(S(=O)(=O)[O-])c3ccccc23)cc(OC)c1.[Na+]` [Compound 40], for which the “Kin. Sol.” value in data set [1] worked out at 320 µM. Further, the Kd – broadly, a measure of binding affinity in units of concentration – on TRF1TRFH amounted to 29 µM. Further, the IC50 (usually the concentration needed to halve the response being measured) in data set [2] came out at 67 µM.
